We go through two compounds from US10864207B2, “Method of treating endothelial dysfunction” (Celagenex Research (India) Pvt. Ltd., priority 2019, dated 2020).

One assay has as its system eNOS gene. The experiment in a line: eNOS gene expression by semi-quantitative RT-PCR in H9C2 cells. The format is cell-based, rat. The following applies: for eNOS expression in % / Regulation in Terms of Folds eNOS: normalized to β-Actin; for Regulation in Terms of Folds eNOS: control = 1.00. As for the experimental part: The test substances were evaluated for their gene expression activity in H9C2 (rat cardiomyocytes) and the concentration of test substances (G1, G2 and G3) taken for gene expression studies was 500 μg/ml. […] [Hunter C. Champion, et al. “PNAS, 2005; 102:5:1661-1666.]
eNOS levels were estimated for the test substance by gene expression method, where the level of expression of eNOS expression on […] Cardiomyocytes (H9C2) was determined with respect to untreated H9C2 cells.
(§1) The H9C2 cells treated with test samples were subjected to cell lysis by treating with Tri-extraction reagent. Chloroform was added to isolate the total RNA from the sample and subjected for centrifugation. Out of the three distinct layers observed, upper layer was collected in fresh tube and equal volume of isopropanol was added and incubated at −20° C. for 10 mins. After the incubation followed by centrifugation, appropriate volume of ethanol was added to resuspend the pellet. After incubation and centrifugation, the pellet was air dried and appropriate volume of TAE buffer was added. The isolated total RNA was further used for cDNA synthesis. cDNA was synthesized by priming with oligo-dT primers followed by reverse transcriptase enzyme treatment according to manufacturer's protocol (Thermoscienctific). The cDNA thus synthesized was taken up for PCR for the amplification of eNOS and GAPDH (internal control).
The mRNA expression levels of eNOS were determined using semi-quantitative reverse transcriptase-polymerase chain reaction (RT-PCR). 50 μl of the reaction mixture was subjected to PCR for amplification of eNOS. cDNAs using specifically designed primers procured from Eurofins, India and GAPDH/β-Actin (House keeping genes) was co-amplified with each reaction as an internal control.
eNOS: 95° C. for 5 min followed by 35 cycles of denaturation at 95° C. for 30 seconds, annealing temperature for 30 seconds and extension at 72° C. for 45 seconds. This was followed by final extension at 72° C. for 10 min. The primers used in this example for I strand synthesis and IInd strand synthesis are disclosed in priority Indian Patent Application No. 201921000093, filed Jan. 2, 2019, which is incorporated herein by reference.

A further assay relates to PGI2 gene. The experiment in a line: PGI2 gene expression by semi-quantitative RT-PCR in H9C2 cells. It counts as cell-based, rat. The following applies: for PGI2 expression in % / Regulation in Terms of Folds PGI2: normalized to GAPDH; for Regulation in Terms of Folds PGI2: control = 1.00. As for the experimental part: […] […] [Hunter C. Champion et al. PNAS, 2005; 102:5:1661-1666].
PGI2 were estimated for the test substance by gene expression method, where the level of expression of PGI2 expression on Rat Cardiomyocytes (H9C2) was determined with respect to untreated H9C2 cells.
as §1, with “treated with drug were subjected” for “treated with test samples were subjected”, “Chloroform was added, to isolate” for “Chloroform was added to isolate”, “according to manufacturers protocol (Thermoscienctific).” for “according to manufacturer's protocol (Thermoscienctific).”, “amplification of PGI2 and GAPDH/β-Actin” for “amplification of eNOS and GAPDH”, “PGI2 and GAPDH/β-Actin (internal control).” for “eNOS and GAPDH (internal control).”
The mRNA expression levels of PGI2 were determined using semi-quantitative reverse transcriptase-polymerase chain reaction (RT-PCR). 50 μl of the reaction mixture was subjected to PCR for amplification of PGI2. cDNAs using specifically designed primers procured from Eurofins, India and GAPDH/β-Actin (House keeping genes) was co-amplified with each reaction as an internal control.
PGI2: 95° C. for 5 min followed by 35 cycles of denaturation at 95° C. for 30 seconds, annealing Tm for 30 seconds and extension at 72° C. for 45 seconds. This was followed by final extension at 72° C. for 10 min. The primers used in this example for I strand synthesis and IInd strand synthesis are disclosed in priority Indian Patent Application No. 201921000093, filed Jan. 2, 2019, which is incorporated herein by reference.

Regarding `C[n+]1cccc(C(N)=O)c1` [Group G1, N^1-methyl nicotinamide chloride], in the assay on eNOS gene (500 μg/ml), the “eNOS expression in %” value is 21% and the “Regulation in Terms of Folds eNOS” value is 1.21 fold. In addition, the “eNOS gene over-expression as compared to the control” value in the assay on eNOS gene (at tested doses (500 μg/ml)) is 0.21 folds. Also, in the assay with PGI2 gene (500 μg/ml), the “PGI2 gene expression increase as compared to the control” value amounted to 0.14 folds, the “PGI2 expression in %” value is 14% and the “Regulation in Terms of Folds PGI2” value is 1.14 fold.

In the case of `O=[N+]([O-])OCC(CO[N+](=O)[O-])O[N+](=O)[O-]` [Nitroglycerin, reference compound], in the assay with eNOS gene (250 μg/ml), the “eNOS expression in %” value was 56% and the “Regulation in Terms of Folds eNOS” value came out at 1.56 fold. The “eNOS gene up-regulation over control” value in the assay with eNOS gene (standard sample (250 μg/ml)) is 0.56 fold. In addition, in the assay on PGI2 gene (250 μg/ml), the “PGI2 expression in %” value came to 29% and the “Regulation in Terms of Folds PGI2” value stood at 1.29 fold.
